In ChEMBL document CHEMBL5500403, “Discovery of a Double-Stapled Short Peptide as a Long-Acting HIV-1 Inactivator with Potential for Oral Bioavailability” (J Med Chem, 2024):
The source made the active and inactive calls. The calls are words filed in the database; no cut-off is given here. Bridge positions count the residues as written; N and C are the ends. Square brackets hold non-standard residues; d marks the D form. Peptide text beside a SMILES is read from it. S5 = C=CCCC[C@](C)(N)C(=O)O

Columns and labels:
[1] = tested on: Human immunodeficiency virus 1; experiment: Antiviral activity against HIV-1 IIIB infected in human MT2 cells assessed as inhibition of viral growth pretreated with virus for 30 mins followed by infection with cells incubated for 72 hrs by ELISA; assay type: functional, organism-based; conditions: Human immunodeficiency virus 1, IIIB
[2] = Selectivity index, ratio of CC50 for cytotoxicity against human MT2 cells to IC50 for antiviral activity against HIV-1 IIIB infected in human MT2 cells; assay type: toxicity, cell-based; conditions: read-out: Ratio CC50/IC50
[3] = tested on: Human immunodeficiency virus 1; experiment: Antiviral activity against T20-resistant HIV-1 NL4-3 harboring […] N42T and N43K mutant infected in human MT2 cells assessed as inhibition of viral growth pretreated with virus for 30 mins followed by infection with cells incubated for 72 hrs by ELISA; assay type: functional, organism-based
[4] = tested on: Human immunodeficiency virus 1; experiment: Antiviral activity against T20-resistant HIV-1 NL4-3 harboring […] V38E and N42S mutant assessed as reduction in viral growth by measuring p24 antigen level incubated for 2 hrs by ELISA; assay type: functional, organism-based
[5] = tested on: Human immunodeficiency virus 1; experiment: Antiviral activity against T20-resistant HIV-1 NL4-3 harboring […] N38A and N42T mutant assessed as reduction in viral growth by measuring p24 antigen level incubated for 2 hrs by ELISA; assay type: functional, organism-based
[6] = tested on: Human immunodeficiency virus 1; experiment: Antiviral activity against T20-resistant HIV-1 NL4-3 harboring […] N42T and N43K mutant assessed as reduction in viral growth by measuring p24 antigen level incubated for 2 hrs by ELISA; assay type: functional, organism-based
[7] = AUClast in Sprague-Dawley rat at 1 mg/kg,iv administration measured upto 9 days by LC-MS/MS analysis; assay type: ADME, organism-based; conditions: in vivo, time < 9 day
[8] = Elimination half life in Sprague-Dawley rat at 1 mg/kg,iv administration measured upto 9 days by LC-MS/MS analysis; assay type: ADME, organism-based; conditions: in vivo, time < 9 day, read-out: beta t1/2 (converted)
[9] = Volume of distribution at steady state in Sprague-Dawley rat at 1 mg/kg,iv administration measured upto 9 days by LC-MS/MS analysis; assay type: ADME, organism-based; conditions: in vivo, time < 9 day, read-out: Vdss
[10] = AUClast in Sprague-Dawley rat at 10 mg/kg,iv administration measured upto 9 days by LC-MS/MS analysis; assay type: ADME, organism-based; conditions: in vivo, time < 9 day
[11] = MRT in Sprague-Dawley rat at 10 mg/kg,iv administration measured upto 9 days by LC-MS/MS analysis; assay type: ADME, organism-based; conditions: in vivo, 216 h, time < 9 day
[12] = Total clearance in Sprague-Dawley rat at 10 mg/kg,iv administration measured upto 9 days by LC-MS/MS analysis; assay type: ADME, organism-based; conditions: in vivo, 216 h, time < 9 day
chymotrypsin = chymotrypsin (Homo sapiens, UniProt P17538+P40313+Q6GPI1+Q99895); experiment: Proteolytic stability assessed as Chymotrypsin (unknown origin) mediated compound degradation by measuring parent compound remaining incubated for 2 hrs by LC-MS/MS analysis; assay type: ADME, protein assay; conditions: read-out: Stability
[13] = Proteolytic stability assessed as Pepsin (unknown origin) mediated compound degradation incubated for 4 hrs by LC-MS/MS analysis; assay type: ADME; conditions: human
[14] = Plasma protein binding in human by LC-MS/MS analysis; assay type: ADME, cell-free; conditions: read-out: PPB (converted)
[15] = Stability in rat liver assessed as parent compound remaining at 1 ug/ml incubated for 1 hr by LC-MS/MS analysis; assay type: ADME, tissue-based; conditions: at 1 µg/mL, read-out: Stability
[16] = Stability in human liver microsomes in presence of NADPH by LC-MS/MS analysis; assay type: ADME, Microsome
[17] = Drug concentration in Sprague-Dawley rat plasma at 10 mg/kg,iv administrated upto 8 days by LC-MS/MS analysis; assay type: ADME, organism-based; conditions: in vivo, 192 h, time < 8 day
[18] = Drug concentration in Sprague-Dawley rat plasma assessed as fold increase in drug uptake at 10 mg/kg,iv administrated upto 8 days by LC-MS/MS analysis; assay type: ADME, organism-based; conditions: in vivo, 192 h, time < 8 day
[19] = Drug concentration in Sprague-Dawley rat plasma at 50 mg/kg,po administrated for 15 hrs by LC-MS/MS analysis; assay type: ADME, organism-based; conditions: in vivo
ACH-2 cell line = experiment: Cytotoxicity against chidamide non-reactivated human ACH-2 cell line infected with latent HIV-1 assessed as reduction in cell viability at 1.25 to 5 uM; assay type: functional, cell-based; conditions: dose 1.25-5 µM
[20] = Toxicity in male BALB/c mouse assessed as change in body weight at 20 mg/kg,iv administration measured upto 14 days; assay type: organism-based; conditions: in vivo, 336 h, time < 14 day
[21] = Toxicity in male BALB/c mouse assessed as change in body weight at 100 mg/kg,iv administration measured upto 14 days; assay type: organism-based; conditions: in vivo, 336 h, time < 14 day
[22] = Toxicity in BALB/c mouse assessed as change in serum creatinine level at 100 mg/kg,iv administration measured upto 6 days; assay type: organism-based; conditions: in vivo, 144 h, time < 6 day
[23] = Toxicity in BALB/c mouse assessed as histopathological change in liver at 20 mg/kg,iv administration measured after 14 days by hematoxylin and eosin staining based assay; assay type: organism-based; conditions: in vivo, 336 h, time 14 day
[24] = Toxicity in BALB/c mouse assessed as histopathological change in liver at 100 mg/kg,iv administration measured after 14 days by hematoxylin and eosin staining based assay; assay type: organism-based; conditions: in vivo, 336 h, time 14 day
[25] = Toxicity in BALB/c mouse assessed as histopathological change in kidney at 20 mg/kg,iv administration measured after 14 days by hematoxylin and eosin staining based assay; assay type: organism-based; conditions: in vivo, 336 h, time 14 day
[26] = Toxicity in Sprague-Dawley rat assessed as change in body weight at 50 mg/kg,iv administration measured upto 14 days; assay type: organism-based; conditions: in vivo, 336 h, time < 14 day
[27] = Toxicity in Sprague-Dawley rat assessed as cell degeneration in kidney at 50 mg/kg,iv administration measured after 14 days by hematoxylin and eosin staining based assay; assay type: organism-based; conditions: in vivo, 336 h, time 14 day
[28] = Toxicity in Sprague-Dawley rat assessed as inflammatory cell infiltration in kidney at 50 mg/kg,iv administration measured after 14 days by hematoxylin and eosin staining based assay; assay type: organism-based; conditions: in vivo, 336 h, time 14 day
[29] = Toxicity in Sprague-Dawley rat assessed as change in serum creatinine level at 50 mg/kg,iv administration measured upto 6 days; assay type: organism-based; conditions: in vivo, 144 h, time < 6 day
[30] = Toxicity in Sprague-Dawley rat assessed as neural damage by measuring NeuN positive cell at 50 mg/kg,iv administration measured after 14 days; assay type: organism-based; conditions: in vivo, 336 h, time 14 day
[31] = tested on: Human immunodeficiency virus 1; experiment: Binding affinity to cytoplasmic LLP1 domain of HIV-1 GP41 by ELISA
[32] = tested on: Human immunodeficiency virus 1; experiment: Binding affinity to cytoplasmic LLP1 domain of HIV-1 GP41 assessed as binding constant by isothermal titration calorimetry
[33] = tested on: Human immunodeficiency virus 1; experiment: Binding affinity to cytoplasmic LLP1 domain of HIV-1 GP41 assessed as change in enthalpy by isothermal titration calorimetry
[34] = tested on: Human immunodeficiency virus 1; experiment: Antiviral activity against HIV-1 IIIB infected in human MT2 cells assessed as inhibition of viral growth at 5 uM preincubation of compound with 10% HSA; assay type: functional, organism-based
[35] = tested on: Human immunodeficiency virus 1; experiment: Antiviral activity against HIV-1 Bal-R5 infected in human CEMx174 5.25M7 cells assessed as inhibition of viral growth pretreated with virus for 30 mins followed by infection with cells incubated for 72 hrs by ELISA; assay type: functional, organism-based; conditions: Human immunodeficiency virus 1, Bal-R5, CEMx174 5.25M7
SARS-CoV-2 = experiment: Antiviral activity against SARS-CoV-2 infected in human Caco-2 cells assessed as inhibition of viral growth at 2000 nM; assay type: functional, organism-based; conditions: Severe acute respiratory syndrome coronavirus 2

`CC(=O)NCC(=O)N[C@@]1(C)CCC/C=C\CCC[C@@](C)(C(=O)N[C@@H](Cc2ccc(O)cc2)C(=O)N[C@@H](CC(C)C)C(=O)N[C@@]2(C)CCC/C=C\CCC[C@@](C)(C(=O)N[C@@H](Cc3ccc(O)cc3)C(=O)N[C@@H](Cc3c[nH]c4ccccc34)C(N)=O)NC(=O)[C@H](CC(C)C)NC(=O)[C@H](CC(C)C)NC(=O)[C@H](CC(N)=O)NC2=O)NC(=O)[C@H](CC(C)C)NC(=O)[C@H](C)NC(=O)[C@H](CCC(=O)O)NC1=O` (Ac-G[S5]EAL[S5]YL[S5]NLL[S5]YW-NH2; staple (Z) 2-6, 9-13) gave an IC50 [1] of 0.0235 µM, a selectivity ratio [2] of 216 and an IC50 [3] of 0.123 µM. The EC50 [4] was 0.0506 µM, the EC50 [5] was 0.0231 µM and the EC50 [6] was 0.114 µM. For the same molecule, the AUC(0-t) at 216 h [7] was 40.4 µg·h/mL, the half-life [8] was greater than 70 h and the Vd [9] was 2.32 L/kg. The AUC(0-t) at 216 h [10] was 334 µg·h/mL, the MRT [11] was 89.1 h and the CL [12] was 0.012 L/h/kg. For the same molecule, the remaining at 2 h (chymotrypsin) was greater than 56.8%, the Stability [13] was “Stable” and the fraction unbound [14] was 0.182. For the same molecule, the remaining at 1 h, 1 ug/ml [15] was 100%, the Stability [16] was “Stable” and the Drug uptake [17] was “Active”. The “fold change (FC)” value [18] was 8.3, the Drug uptake [19] was “Active” and the Activity (ACH-2 cell line) was “inactive”. The Activity [20] was “Non-Toxic”, the Activity [21] was “Non-Toxic” and the Activity [22] was “Non-Toxic”. For the same molecule, the Activity [23] was “Non-Toxic”, the Activity [24] was “Non-Toxic” and the Activity [25] was “Non-Toxic”. The Activity [26] was “Non-Toxic”, the Activity [27] was “Non-Toxic” and the Activity [28] was “Non-Toxic”. For the same molecule, the Activity [29] was “Non-Toxic”, the Activity [30] was “Non-Toxic” and the Activity [31] was “Dose-Dependent Effect”. For the same molecule, the K [32] was 2.77 10^5/M, the deltaH [33] was -2.84 10^4cal/mol and the Activity [34] was “Active”. The IC50 [35] was 0.18 µM and the Activity (SARS-CoV-2) was “inactive”.
